Tests used:
[1] = Targeted metabolomics for PCS after L-tyrosine feeding; assay type: in vivo, mouse
Experimental: Mice were fed with L-tyrosine in drinking water (100 mg/kg/day) for 14 days, after which faeces were collected. BALF samples were collected after HDM immunization as per FIG. 1. […] Data represent samples from one experiment. All data are presented as mean values+/−SEM.
Mice received water as a control or L-tyrosine (reagent grade, ≥98% Sigma-Aldrich, St. Louis, Mo.) resuspended in drinking water under sterile conditions at the concentration of 100 mg/kg/day or 500 mg/kg/day (based on the assumption of a mouse consuming 4 ml of water daily). All mice received the treatment 2 weeks prior and throughout the experiment. […] Control mice received 200 μl of saline. For experiments employing antibiotic treatment, 3-week old mice were treated with a combination enrofloxacin (10 mg/kg/day) and amoxicillin with clavulanic acid (1 mg/kg/day) for one week, followed by one week of only amoxicillin with clavulanic acid (1 mg/kg/day). Then, mice were then put on L-tyrosine diet in drinking water for two weeks followed by HDM exposure as before. […]
25 μL of plasma samples were extracted with 100 μL of chilled methanol containing internal standard (PCS-d4 at 500 ng/ml plasma concentration), shaken on ice for 30 min and centrifuged at 4° C. for 10 min. […] Peak integration and quantitation were performed using Tracefinder 4.1 application (Thermo Scientific).

[2] = test system: C57BL6/J mice exposed intranasally to house dust mite extract (HDM); experiment: HDM animal model of allergic airway inflammation; assay type: in vivo, mouse
Experimental: Mice received water as a control or L-tyrosine (reagent grade, ≥98% Sigma-Aldrich, St. Louis, Mo.) resuspended in drinking water under sterile conditions at the concentration of 100 mg/kg/day or 500 mg/kg/day (based on the assumption of a mouse consuming 4 ml of water daily). All mice received the treatment 2 weeks prior and throughout the experiment. […] Control mice received 200 μl of saline. […]. For experiments employing antibiotic treatment, 3-week old mice were treated with a combination enrofloxacin (10 mg/kg/day) and amoxicillin with clavulanic acid (1 mg/kg/day) for one week, followed by one week of only amoxicillin with clavulanic acid (1 mg/kg/day). Then, mice were then put on L-tyrosine diet in drinking water for two weeks followed by HDM exposure as before. During this time, mice were maintained on antibiotic treatment with amoxicillin/clavulanic acid until end of experiment.
Mice were anaesthetised by the inhalation of 4% isoflurane in oxygen for 3-5 minutes. 20 μg of protein content of crude house dust mite extract (HDM) (Greer Laboratories Inc., Lenoir, N.C.) in 20 μl of sterile phosphate-buffered saline (PBS) (Gibco™) was applied intranasally on days 0, 11, 12 and 13. Mice were humanely sacrificed with the lethal dose of pentobarbital (Streuli Pharma AG, Uznach, Switzerland) on day 14.
Bronchoalveolar lavage fluid (BALF) was collected by flushing airways with 0.5 ml PBS supplemented with 0.2% bovine serum albumin (Sigma-Aldrich, St. Louis, Mo.). Total cell number was determined with Coulter Counter (IG Instrumenten-Gesellschaft AG, Basel, Switzerland) while differential cell staining performed on cytospins stained with Diff-Quik solution (Dade Behring, Siemens Healthcare Diagnostics, Deerfield, Ill.). Percentages of neutrophils, macrophages, lymphocytes and eosinophils were assessed by counting 200 cells per sample.
Concentrations of interleukin-4, -5, -13, -17 and IFN-γ in culture supernatants were analysed with mouse Ready-Set-Go!™ ELISA kits (eBioscience™, San Diego, Calif.) according to manufacturer's instructions. To measure the levels of HDM-specific IgG1 and IgE in plasma, half area 96-well plates (Corning) were coated with HDM (10 μg in PBS) overnight at 4° C., followed by the incubation of samples for 2 hours at RT, and the addition of alkaline-phophatase-conjugated goat anti-mouse IgE or IgG1 (both from SouthernBiotech, Birmingham, Ala.; diluted at 1 μg ml-1 in PBS 0.2% BSA) for 2 hours at RT. 4-nitrophenyl phosphate sodium salt hexahydrate (pNPP) (Sigma) was used as a substrate, and the colorimetric reaction was read at 405 nm on the Synergy H1 microplate reader (Biotek, Luzern, Switzerland). To measure the levels of total IgA and IgM as well as hen egg lysozyme (HEL)-specific IgA and IgM in mouse faeces, faecal pellets were homogenized in 0.8 ml cold PBS, centrifuged at 400 g for 5 minutes to remove large debris, filtered through 40 μm cell strainer and centrifuged at 8000 g for 10 minutes to pellet bacteria. The supernatant was collected and loaded for 2 hours at RT on 96-well half area plates coated a day before at 4° C. with anti-IgA (Southern Biotech; 2 μg ml-1), anti-IgM (SouthernBiotech; 2 μg ml-1) or HEL protein (Sigma-Aldrich; 10 μg/ml). This step was followed by the addition of alkalinephophatase-conjugated goat anti-mouse IgA or IgM (both at 1 μg ml-1 in PBS 0.2% BSA) for 2 hours at RT. 4-nitrophenyl phosphate sodium salt hexahydrate (pNPP) (Sigma) was used as a substrate, and the colorimetric reaction was read at 405 nm as before.
Mediastinal lymph nodes were filtered through a 40 μm cell strainer, washed with PBS supplemented with 1% fetal bovine serum and 2 mM EDTA (Invitrogen) (MACS buffer). Lungs were finely cut with scissors, digested with Collagenase IV (Gibco™) in Iscove's modified Dulbecco's medium (IMDM, Gibco™) for 50 min at 37° C. and processed as the lymph nodes.

[3] = L-tyrosine oral in drinking water

- PCS concentrations in the faeces ([1]; L-tyrosine in drinking water 100 mg/kg/day for 14 days): increase
- PCS concentrations in the airways (BALF) ([1]; L-tyrosine in drinking water 100 mg/kg/day, BALF after HDM immunization): increase
SMILES: N[C@@H](Cc1ccc(O)cc1)C(=O)O [L-tyrosine]
- FoxP3+ Treg cells in the lungs [2, 3]: not altered
- numbers of T helper cells in the lungs [2, 3]: not altered
- recruitment of DCs (lungs) [2, 3]: reduced
- recruitment of neutrophils (BALF) [2, 3]: reduced
- recruitment of eosinophils (BALF) ([2]; L-tyrosine oral in drinking water, 2 weeks prior and throughout, vs water): reduced
- IL-5 concentrations in culture supernatants of mediastinal LNs ([2]; L-tyrosine oral in drinking water, not reaching statistical significance): trend towards a decrease
- production of IL-13 by restimulated mediastinal LNs ([2]; L-tyrosine oral in drinking water, restimulated with HDM for 4 days): reduced
- protective effect of L-tyrosine under antibiotic treatment (eosinophils, DCs, IL-5 in BALF) ([2]; L-tyrosine oral plus enrofloxacin and amoxicillin/clavulanic acid (microbiota depletion)): abrogated
- CCL20 concentrations in the BALF ([2]; L-tyrosine-treated wild-type mice exposed to HDM): reduced
